Results published in PubChem BioAssay (NCI).
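Grown in 96-well plates, cells were treated for 48 hours with each compound at five concentrations. Insufficient inhibition: endpoint recorded as highest concentration tested. At the TGI there is no net growth.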

Experiments:
Test in all cases: NCI tumour cell line growth inhibition, 48 h
786-0 renal = tested on: 786-0 renal
ACHN renal = tested on: ACHN renal
NCI-H460 lung = tested on: NCI-H460 lung
HOP-62 NSCLC = tested on: HOP-62 NSCLC
OVCAR-5 ovarian = tested on: OVCAR-5 ovarian
A549 NSCLC = tested on: A549 NSCLC
HCT-15 colon = tested on: HCT-15 colon
HT29 colon = tested on: HT29 colon
HS 578T breast = tested on: HS 578T breast
U251 CNS = tested on: U251 CNS
UACC-257 melanoma = tested on: UACC-257 melanoma
UO-31 renal = tested on: UO-31 renal
COLO 205 colon = tested on: COLO 205 colon
HCT-116 colon = tested on: HCT-116 colon
MDA-MB-435 = tested on: MDA-MB-435
MDA-MB-231 breast = tested on: MDA-MB-231 breast
MOLT-4 leukemia = tested on: MOLT-4 leukemia
NCI-H522 lung = tested on: NCI-H522 lung
SNB-75 CNS = tested on: SNB-75 CNS
CAKI-1 renal = tested on: CAKI-1 renal
SK-MEL-5 melanoma = tested on: SK-MEL-5 melanoma
SW-620 colon = tested on: SW-620 colon
SR leukemia = tested on: SR leukemia
SNB-19 CNS = tested on: SNB-19 CNS
M14 melanoma = tested on: M14 melanoma
OVCAR-4 ovarian = tested on: OVCAR-4 ovarian
MDA-N = tested on: MDA-N
UACC-62 melanoma = tested on: UACC-62 melanoma
DU-145 prostate = tested on: DU-145 prostate
SK-MEL-2 melanoma = tested on: SK-MEL-2 melanoma
NCI/ADR-RES ovarian = tested on: NCI/ADR-RES ovarian
SN12C renal = tested on: SN12C renal
SF-539 CNS = tested on: SF-539 CNS
K-562 leukemia = tested on: K-562 leukemia
TK-10 renal = tested on: TK-10 renal
OVCAR-8 ovarian = tested on: OVCAR-8 ovarian
LOX IMVI melanoma = tested on: LOX IMVI melanoma
PC-3 prostate = tested on: PC-3 prostate
HL-60(TB) leukemia = tested on: HL-60(TB) leukemia
SK-OV-3 ovarian = tested on: SK-OV-3 ovarian
HOP-92 NSCLC = tested on: HOP-92 NSCLC
MALME-3M melanoma = tested on: MALME-3M melanoma
IGROV1 ovarian = tested on: IGROV1 ovarian
NCI-H226 lung = tested on: NCI-H226 lung
SK-MEL-28 melanoma = tested on: SK-MEL-28 melanoma
SF-268 CNS = tested on: SF-268 CNS
KM12 colon = tested on: KM12 colon
RPMI-8226 leukemia = tested on: RPMI-8226 leukemia
NCI-H23 lung = tested on: NCI-H23 lung
SF-295 CNS = tested on: SF-295 CNS
BT-549 breast = tested on: BT-549 breast
A498 renal = tested on: A498 renal
T-47D breast = tested on: T-47D breast
RXF 393 renal = tested on: RXF 393 renal
EKVX NSCLC = tested on: EKVX NSCLC
CCRF-CEM leukemia = tested on: CCRF-CEM leukemia
OVCAR-3 ovarian = tested on: OVCAR-3 ovarian
HCC-2998 colon = tested on: HCC-2998 colon

For `O=C(OC1C(Oc2ccccc2COC(=O)C2(O)C=CCCC2=O)OC(CO)C(O)C1O)c1ccccc1` (stereo not given), the TGI (786-0 renal) was over 100 µM, the TGI (ACHN renal) was over 100 µM and the TGI (NCI-H460 lung) was over 100 µM. It also gave a TGI (HOP-62 NSCLC) of over 100 µM, a TGI (OVCAR-5 ovarian) of over 100 µM and a TGI (A549 NSCLC) of 38.8 µM. It also gave a TGI (HCT-15 colon) of over 100 µM, a TGI (HT29 colon) of over 100 µM and a TGI (HS 578T breast) of 56.4 µM. For the same molecule, the TGI (U251 CNS) was over 100 µM, the TGI (UACC-257 melanoma) was over 100 µM and the TGI (UO-31 renal) was over 100 µM. The TGI (COLO 205 colon) was 90.3 µM, the TGI (HCT-116 colon) was over 100 µM and the TGI (MDA-MB-435) was over 100 µM. The TGI (MDA-MB-231 breast) was over 100 µM, the TGI (MOLT-4 leukemia) was 76.9 µM and the TGI (NCI-H522 lung) was 51.1 µM. For the same molecule, the TGI (SNB-75 CNS) was 60 µM, the TGI (CAKI-1 renal) was 28.3 µM and the TGI (SK-MEL-5 melanoma) was 17.9 µM. It also gave a TGI (SW-620 colon) of over 100 µM, a TGI (SR leukemia) of over 100 µM and a TGI (SNB-19 CNS) of over 100 µM. For the same molecule, the TGI (M14 melanoma) was over 100 µM, the TGI (OVCAR-4 ovarian) was over 100 µM and the TGI (MDA-N) was over 100 µM. For the same molecule, the TGI (UACC-62 melanoma) was over 100 µM, the TGI (DU-145 prostate) was over 100 µM and the TGI (SK-MEL-2 melanoma) was over 100 µM. It also gave a TGI (NCI/ADR-RES ovarian) of over 100 µM, a TGI (SN12C renal) of over 100 µM and a TGI (SF-539 CNS) of over 100 µM. The TGI (K-562 leukemia) was over 100 µM, the TGI (TK-10 renal) was over 100 µM and the TGI (OVCAR-8 ovarian) was over 100 µM. For the same molecule, the TGI (LOX IMVI melanoma) was over 100 µM, the TGI (PC-3 prostate) was over 100 µM and the TGI (HL-60(TB) leukemia) was 54.6 µM. For the same molecule, the TGI (SK-OV-3 ovarian) was over 100 µM, the TGI (HOP-92 NSCLC) was 42.5 µM and the TGI (MALME-3M melanoma) was 82.1 µM. The TGI (IGROV1 ovarian) was over 100 µM, the TGI (NCI-H226 lung) was over 100 µM and the TGI (SK-MEL-28 melanoma) was over 100 µM. It also gave a TGI (SF-268 CNS) of 93.5 µM, a TGI (KM12 colon) of over 100 µM and a TGI (RPMI-8226 leukemia) of 58.1 µM. It also gave a TGI (NCI-H23 lung) of over 100 µM.
`O=S(=O)(Nc1nc2ccccc2n1S(=O)(=O)c1ccccc1)c1ccccc1` showed a TGI (786-0 renal) of over 100 µM, a TGI (ACHN renal) of 61.9 µM and a TGI (SF-295 CNS) of over 100 µM. The TGI (HOP-62 NSCLC) was over 100 µM, the TGI (OVCAR-5 ovarian) was over 100 µM and the TGI (A549 NSCLC) was over 100 µM. The TGI (HCT-15 colon) was over 100 µM, the TGI (HT29 colon) was over 100 µM and the TGI (HS 578T breast) was over 100 µM. For the same molecule, the TGI (U251 CNS) was over 100 µM, the TGI (UACC-257 melanoma) was over 100 µM and the TGI (UO-31 renal) was over 100 µM. It also gave a TGI (COLO 205 colon) of over 100 µM, a TGI (HCT-116 colon) of over 100 µM and a TGI (MDA-MB-435) of over 100 µM. It also gave a TGI (MDA-MB-231 breast) of over 100 µM, a TGI (MOLT-4 leukemia) of over 100 µM and a TGI (NCI-H522 lung) of over 100 µM. For the same molecule, the TGI (BT-549 breast) was over 100 µM, the TGI (SNB-75 CNS) was over 100 µM and the TGI (A498 renal) was over 100 µM. The TGI (T-47D breast) was over 100 µM, the TGI (CAKI-1 renal) was over 100 µM and the TGI (SK-MEL-5 melanoma) was over 100 µM. The TGI (RXF 393 renal) was over 100 µM, the TGI (SW-620 colon) was over 100 µM and the TGI (SNB-19 CNS) was over 100 µM. For the same molecule, the TGI (M14 melanoma) was over 100 µM, the TGI (OVCAR-4 ovarian) was over 100 µM and the TGI (MDA-N) was over 100 µM. The TGI (UACC-62 melanoma) was over 100 µM, the TGI (DU-145 prostate) was over 100 µM and the TGI (SK-MEL-2 melanoma) was over 100 µM. It also gave a TGI (NCI/ADR-RES ovarian) of over 100 µM, a TGI (SN12C renal) of over 100 µM and a TGI (K-562 leukemia) of over 100 µM. The TGI (TK-10 renal) was over 100 µM, the TGI (OVCAR-8 ovarian) was over 100 µM and the TGI (LOX IMVI melanoma) was over 100 µM. The TGI (PC-3 prostate) was over 100 µM, the TGI (SK-OV-3 ovarian) was over 100 µM and the TGI (EKVX NSCLC) was over 100 µM. For the same molecule, the TGI (CCRF-CEM leukemia) was 73.8 µM, the TGI (HOP-92 NSCLC) was over 100 µM and the TGI (MALME-3M melanoma) was over 100 µM. It also gave a TGI (IGROV1 ovarian) of over 100 µM, a TGI (NCI-H226 lung) of over 100 µM and a TGI (SK-MEL-28 melanoma) of over 100 µM. For the same molecule, the TGI (OVCAR-3 ovarian) was over 100 µM, the TGI (SF-268 CNS) was over 100 µM and the TGI (KM12 colon) was over 100 µM. For the same molecule, the TGI (RPMI-8226 leukemia) was over 100 µM and the TGI (NCI-H23 lung) was over 100 µM.
Molecule `c1ccc(N=C(N2CCCCC2)N(CCN2CCCCC2)c2ccccc2)cc1` has a TGI (ACHN renal) of 4.58 µM, a TGI (NCI-H460 lung) of 2.02 µM and a TGI (SF-295 CNS) of 2.21 µM. For the same molecule, the TGI (HOP-62 NSCLC) was 3.07 µM, the TGI (OVCAR-5 ovarian) was 8.01 µM and the TGI (A549 NSCLC) was 14.2 µM. It also gave a TGI (HCT-15 colon) of 12.7 µM, a TGI (HT29 colon) of 2.93 µM and a TGI (HS 578T breast) of 3.51 µM. It also gave a TGI (U251 CNS) of 5.39 µM, a TGI (UACC-257 melanoma) of 6.61 µM and a TGI (UO-31 renal) of 8.07 µM. The TGI (COLO 205 colon) was 11.2 µM, the TGI (HCT-116 colon) was 4.18 µM and the TGI (MDA-MB-435) was 9.01 µM. It also gave a TGI (MDA-MB-231 breast) of 11 µM, a TGI (MOLT-4 leukemia) of 1.74 µM and a TGI (NCI-H522 lung) of 4.58 µM. The TGI (SNB-75 CNS) was 6.44 µM, the TGI (T-47D breast) was 9.23 µM and the TGI (CAKI-1 renal) was 14.1 µM. It also gave a TGI (SK-MEL-5 melanoma) of 3.3 µM, a TGI (SW-620 colon) of 13.7 µM and a TGI (SR leukemia) of 2.31 µM. For the same molecule, the TGI (SNB-19 CNS) was 14.4 µM, the TGI (M14 melanoma) was 16.1 µM and the TGI (HCC-2998 colon) was 5.16 µM. It also gave a TGI (OVCAR-4 ovarian) of 17 µM, a TGI (MDA-N) of 2.96 µM and a TGI (DU-145 prostate) of 12.7 µM. For the same molecule, the TGI (SK-MEL-2 melanoma) was 4.64 µM, the TGI (NCI/ADR-RES ovarian) was 4.29 µM and the TGI (SN12C renal) was 12.5 µM. For the same molecule, the TGI (K-562 leukemia) was 4.27 µM, the TGI (TK-10 renal) was 14.2 µM and the TGI (OVCAR-8 ovarian) was 11.3 µM. It also gave a TGI (LOX IMVI melanoma) of 2.39 µM, a TGI (PC-3 prostate) of 3.72 µM and a TGI (HL-60(TB) leukemia) of 1.02 µM. The TGI (SK-OV-3 ovarian) was 14 µM, the TGI (CCRF-CEM leukemia) was 2.03 µM and the TGI (HOP-92 NSCLC) was 6.2 µM. The TGI (IGROV1 ovarian) was 12.1 µM, the TGI (NCI-H226 lung) was 16 µM and the TGI (SK-MEL-28 melanoma) was 8.65 µM. The TGI (OVCAR-3 ovarian) was 2.51 µM, the TGI (RPMI-8226 leukemia) was 0.627 µM and the TGI (NCI-H23 lung) was 7.17 µM.
